Reference: patent EP4104902B1, “COMPOUNDS AND M[…] SAME” (priority 2020, dated 2021)
pIC50: −log10 of the molar value. Read-outs that look alike come from different tables or passages of the source.

What was measured:
[1] = system: recombinant rabies virus 1088 strain expressing Gaussia Luciferase (GLuc) (1088/GLuc); assay type: cell-based
rabies virus = conditions: mouse, in vivo; cited from earlier work
[2] = system: mouse neuroblastoma cell strain Neuro-2A; experiment: Anti-cancer cell activity evaluation (minimum inhibitory concentration with respect to cells); assay type: cell-based; conditions: MIC, 3 days
[3] = compounds of formula XXIIB and formula XXIIF

Q: With `NC(=O)c1nc(F)c[nH]c1=O` [Compound T-705, Favipiravir] as the molecule, how does the pIC50 ([1]; read-out: IC50) read?
A: 4.52

Q: What about the prophylactic effect (rabies virus) of the same molecule?
A: significant prophylactic effect was confirmed and not

Q: With `CC(C)CCN1C[C@H]2C[C@]3(C(=O)NCc4ccc(Cl)cc4)N=C[C@H]2[C@H]1[C@H]3Cc1ccccc1` (relative stereo) [IIF-326] as the molecule, how does the pIC50 ([1]; read-out: Anti-rabies activity) read?
A: > 5.30

Q: What about the Anti-cancer cell activity ([2]; compounds of formula XXIIB and formula XXIIF (continuation)) of the same molecule?
A: b (b if greater than 10 µM and less than or equal to 20 µM)

Q: Which results are given for `CC(C)CN1CC2CC3CNC2(C(=O)NCCc2ccccc2)C1C3CCc1ccccc1` (centres unmarked) [IB-957]?
A: pIC50 ([1]; read-out: Anti-rabies activity): > 5.30; Anti-cancer cell activity ([2]; compounds of formula XXIB): c (c if greater than 20 µM and less than or equal to 40 µM)

Q: With `CC(C)CN1CC2CC3C=NC2(C(=O)NCc2ccc(Cl)cc2)C1C3CCc1ccccc1` (centres unmarked) [IIB-331] as the molecule, how does the pIC50 ([1]; read-out: Anti-rabies activity) read?
A: > 5.30

Q: And the Anti-cancer cell activity [2, 3]?
A: c (c if greater than 20 µM and less than or equal to 40 µM)

Q: With `COc1cccc(CNC(=O)C23CC4CN(CC(C)C)C(C4CN2)C3CCCc2ccccc2)c1` (centres unmarked) [IF-894] as the molecule, how does the pIC50 ([1]; read-out: Anti-rabies activity) read?
A: > 5.30

Q: And the Anti-cancer cell activity ([2]; compounds of formula XXIF)?
A: c (c if greater than 20 µM and less than or equal to 40 µM)

Q: Which results are given for `CC(C)CCN1CC2CC3C=NC2(C(=O)NCc2cccc(F)c2)C1C3CCCc1ccccc1` (centres unmarked) [IIB-347]?
A: pIC50 ([1]; read-out: Anti-rabies activity): > 5.30; Anti-cancer cell activity [2, 3]: c (c if greater than 20 µM and less than or equal to 40 µM)

Q: With `CC(C)CCN1C[C@@H]2C[C@H]3CN[C@]2(C(=O)NCc2cccc(F)c2)[C@@H]1[C@@H]3CCCc1ccccc1` (relative stereo) [IB-940] as the molecule, how does the pIC50 ([1]; read-out: Anti-rabies activity) read?
A: > 5.30

Q: And the Anti-cancer cell activity ([2]; compounds of formula XXIB)?
A: c (c if greater than 20 µM and less than or equal to 40 µM)

Q: With `Cc1ccc(CNC(=O)C23N=CC4CC2CN(CC(C)C)C3C4CCc2ccccc2)cc1` (centres unmarked) [IIB-334] as the molecule, how does the pIC50 ([1]; read-out: Anti-rabies activity) read?
A: > 5.30

Q: And the Anti-cancer cell activity [2, 3]?
A: c (c if greater than 20 µM and less than or equal to 40 µM)

Q: Which results are given for `CC(C)CN1CC2CC3C=NC2(C(=O)NCc2ccccc2)C1C3CCCCc1ccccc1` (centres unmarked) [IIB-346]?
A: pIC50 ([1]; read-out: Anti-rabies activity): > 5.30; Anti-cancer cell activity [2, 3]: b (b if greater than 10 µM and less than or equal to 20 µM)

Q: With `CC(C)CN1C[C@@H]2C[C@H]3CN[C@]2(C(=O)NCc2ccc(Cl)cc2)[C@@H]1[C@@H]3CCc1ccccc1` (relative stereo) [IB-925] as the molecule, how does the pIC50 ([1]; read-out: Anti-rabies activity) read?
A: > 5.30

Q: What about the Anti-cancer cell activity ([2]; compounds of formula XXIB) of the same molecule?
A: c (c if greater than 20 µM and less than or equal to 40 µM)
